For assay [1], the target named is Sodium-dependent dopamine transporter (Rattus norvegicus, UniProt P23977).
For assay [2], the target named is Sodium-dependent serotonin transporter (Rattus norvegicus, UniProt P31652).
In assay [3] the target is Norepinephrine transporter (Rattus norvegicus, UniProt Q9JIA2).

Molecules are shown by their SMILES. A value given as a limit tells only on which side of the number the result lay.

Sequence of Sodium-dependent dopamine transporter (P23977 whole entry): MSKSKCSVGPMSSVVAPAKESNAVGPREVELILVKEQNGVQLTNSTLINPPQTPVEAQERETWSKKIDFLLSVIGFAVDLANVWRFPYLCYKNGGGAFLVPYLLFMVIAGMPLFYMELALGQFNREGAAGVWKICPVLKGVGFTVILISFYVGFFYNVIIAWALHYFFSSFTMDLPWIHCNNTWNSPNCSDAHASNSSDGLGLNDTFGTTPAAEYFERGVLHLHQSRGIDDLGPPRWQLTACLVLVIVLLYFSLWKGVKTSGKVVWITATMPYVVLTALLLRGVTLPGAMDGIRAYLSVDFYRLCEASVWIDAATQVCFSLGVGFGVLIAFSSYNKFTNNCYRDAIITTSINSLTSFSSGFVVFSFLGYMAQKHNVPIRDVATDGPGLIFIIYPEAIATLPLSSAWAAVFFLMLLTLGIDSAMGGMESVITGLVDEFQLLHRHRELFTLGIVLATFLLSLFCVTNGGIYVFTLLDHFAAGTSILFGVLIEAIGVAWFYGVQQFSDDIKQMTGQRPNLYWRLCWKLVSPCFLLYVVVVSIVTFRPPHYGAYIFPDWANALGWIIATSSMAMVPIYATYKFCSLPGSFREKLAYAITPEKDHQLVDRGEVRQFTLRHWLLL
Sequence of Sodium-dependent serotonin transporter (P31652 whole entry): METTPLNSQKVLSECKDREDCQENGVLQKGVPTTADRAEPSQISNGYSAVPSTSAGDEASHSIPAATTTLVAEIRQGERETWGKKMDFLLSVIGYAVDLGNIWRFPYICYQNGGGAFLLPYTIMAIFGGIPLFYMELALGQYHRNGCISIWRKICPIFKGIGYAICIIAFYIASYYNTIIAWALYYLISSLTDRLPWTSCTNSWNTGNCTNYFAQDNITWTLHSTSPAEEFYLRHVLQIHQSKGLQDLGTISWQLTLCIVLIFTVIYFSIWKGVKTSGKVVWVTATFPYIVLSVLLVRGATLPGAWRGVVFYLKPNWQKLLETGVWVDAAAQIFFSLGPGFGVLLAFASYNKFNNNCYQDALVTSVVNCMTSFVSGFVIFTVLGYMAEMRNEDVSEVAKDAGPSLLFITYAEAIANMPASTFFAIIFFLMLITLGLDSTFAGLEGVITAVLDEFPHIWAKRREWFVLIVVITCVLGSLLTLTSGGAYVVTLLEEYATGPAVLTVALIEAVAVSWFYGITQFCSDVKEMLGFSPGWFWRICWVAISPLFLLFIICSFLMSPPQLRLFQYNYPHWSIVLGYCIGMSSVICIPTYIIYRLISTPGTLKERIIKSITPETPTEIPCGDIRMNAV

Consider `CC(C)OC(=O)[C@@H]1C2CC[C@H](C[C@@H]1c1ccc(I)cc1)N2C`, for which the figures for the Ki in assay [1], in assay [2] and in assay [3] were 0.4 nM, 66.8 nM and 285 nM, respectively.
The matching figures for `CC(C)OC(=O)[C@@H]1C2CC[C@H](C[C@@H]1c1ccc(Cl)cc1)N2C`: 1.4 nM, 1400 nM and 778 nM.
The matching figures for `COC(=O)[C@H]1[C@@H](c2ccc(Cl)c(C)c2)C[C@@H]2CC[C@H]1N2C`: 0.8 nM, 10.5 nM and 36.2 nM.
Take `COC(=O)[C@@H]1C2CCC(C[C@@H]1c1ccc(Cl)c(Cl)c1)N2C` (stereo partly drawn) [(2S,3S)-methyl 3-(3,4-dichlorophenyl)-8-methyl-8-aza-bicyclo[3.2.1]octane-2-carboxylate]: the Ki – broadly, the dissociation constant of the complex between target and ligand, obtained from inhibition or displacement – in assay [1] was 0.79 nM; in assay [2], 3.1 nM; in assay [3] it was 17.9 nM.
For `COC(=O)C1C2CC[C@H](C[C@@H]1c1ccc(N)cc1)N2C` (stereo partly drawn) [(3S,8R)-3-(4-Amino-phenyl)-8-methyl-8-aza-bicyclo[3.2.1]octane-2-carboxylic acid methyl ester] the same measures were 9.8 nM, 5110 nM and 151 nM.
For `CN1[C@H]2CC[C@@H]1[C@@H](C(=O)O)[C@@H](c1ccc(Cl)cc1)C2` [RIT-70] the same measures were 2070 nM, greater than 10000 nM and greater than 10000 nM.
As for `COC(=O)[C@H]1[C@@H](c2ccc(Cl)cc2)C[C@@H]2CC[C@H]1N2C` [RTI-31], the Ki in assay [1] turned out to be 1.12 nM; in assay [2] it was 44.5 nM.
For `COC(=O)C1C2CC[C@H](C[C@@H]1c1ccc(C)cc1)N2C` (stereo partly specified) [RTI-32], the inhibition constant (Ki) in assay [1] turned out to be 1.7 nM; in assay [3], 60 nM.
Regarding `COC(=O)[C@H]1[C@@H](c2ccc(Br)cc2)C[C@@H]2CC[C@H]1N2C` [RTI-51], the Ki in assay [1] stood at 1.69 nM; in assay [2], 10.6 nM.
As to `COC(=O)[C@H]1[C@@H](c2ccc(Cl)cc2)C[C@@H]2CC[C@H]1N2` [RTI-110], the figures for the Ki in assay [1], in assay [2] and in assay [3] were 0.62 nM, 4.1 nM and 5.45 nM, respectively.
For `CN1[C@H]2CC[C@@H]1[C@@H](C(=O)Oc1ccccc1)[C@@H](c1ccc(Cl)cc1)C2` [RTI-113] the same measures were 1.98 nM, 2340 nM and 2930 nM.
The matching figures for `Cc1ccc([C@H]2C[C@@H]3CC[C@H]([C@H]2C(=O)Oc2ccccc2)N3C)cc1` [RTI-120]: 3.26 nM, greater than 10000 nM and 5830 nM.
For `CN1C2CC[C@@H]1C[C@H](c1ccc(Cl)cc1)C2C(=O)N1CCCC1` (stereo partly specified) [RTI-147] the same measures were 1.38 nM, greater than 10000 nM and 3950 nM.
As for `CN1[C@H]2CC[C@@H]1[C@@H](C(=O)N1CCCC1)[C@@H](c1ccc(I)cc1)C2` [RTI-229], the inhibitory constant (Ki) in assay [1] stood at 0.37 nM; in assay [2] it was 1730 nM; in assay [3], 990 nM.
Turning to `COC(=O)[C@H]1[C@@H](c2ccccc2)C[C@@H]2CC[C@H]1N2C` [methyl (1R,2S,3S,5S)-8-methyl-3-phenyl-8-azabicyclo[3.2.1]octane-2-carboxylate], the Ki in assay [1] worked out at 23 nM; in assay [3], 920 nM.

Values taken from BindingDB's records for PubMed 10336510 (Virginia Commonwealth University, 1999).
